This is an account of results in patent US20110217324A1, “INHIBITORS OF ANTIGEN PRESENTATION BY MHC CLASS II MOLECULES AND METHODS OF USE THEREOF” (priority 2007, published 2011).

Assay [1] addresses T1, MHC DR2 (DRB1*1501/DRA*0101) (Homo sapiens, UniProt P01903+P01911).
T1 construct: endogenous in cells; host or cells: EBV homozygous (B lymphoblastoid) cell lines
Nature of the assay: HLA II Binding Assay (competition with biotinylated reference peptide). Conditions: purified HLA-DR, biotinylated reference compound for DRB1*1501, 37° C. 24 h to 72 h; read-out: Inhibition of peptide binding IC50 (against MHC DR2 (DRB1*1501/DRA*0101)). As to the method:
EBV homozygous cell lines are used as sources of human HLA class II molecules. […] The supernatant from lysed cells after centrifugation (100,000 g for 1 h) is applied to Sepharose 4B and protein A-Sepharose 4B columns and then to the specific antibody column. […] Fractions are immediately neutralized to pH 7 with 2 mM Tris-HCl (pH 6.8) and extensively dialyzed against 1 mM n-dodecyl β-D-maltoside, 150 mM NaCl, 10 mM phosphate (pH 7) buffer.
Samples (100 μl per well) are incubated in 96-wells polypropylene plates at 37° C. for 24 h to 72 h. After neutralization with 50 μl of 450 mM Tris HCl pH 7.5, 0.003% thimerosal, 0.3% BSA, 1 mM n-dodecyl β-D-maltoside buffer, samples are applied to 96-well maxisorp ELISA plates previously coated with 10 μg/ml L243 Mab and saturated with 100 mM Tris HCl pH=7.5, 0.3% BSA, and 0.003% thimerosal buffer. Samples are allowed to bind to the antibody-coated plates for 2 h at room temperature. Bound biotinylated compound is detected by incubating streptavidin-alkaline phosphatase conjugate, and after washings, by the addition of 4-methylumbelliferyl phosphate substrate. […] Maximal binding is determined by incubating the biotinylated peptide with the MHC class II molecule in the absence of competitor. Binding specificity is assessed by adding an excess of non-biotinylated peptide.

A further assay has as its target DRB1*1501 (Homo sapiens, UniProt P01903+P01911). Conditions: DR2 haplotype; cited from earlier work.
The target in another assay is DRB5*0101 (Homo sapiens, UniProt P01903+Q30154). Conditions: DR2 haplotype; cited from earlier work.
For the next assay, the system named is DR molecules. The settings on record: cited from earlier work.
The test system of the next assay is T cell proliferation. Conditions: cited from earlier work.
For assay [2], the system named is animal models of autoimmune disease. The settings on record: in vivo; cited from earlier work.

Square brackets hold non-standard residues; d marks the D form. Peptide text beside a SMILES is read from it. * marks the point of attachment. Gly(cPent) = N[C@H](C(=O)O)C1CCCC1; Igl = N[C@H](C(=O)O)C1Cc2ccccc2C1; Tic = O=C(O)[C@@H]1Cc2ccccc2CN1; Chg = N[C@H](C(=O)O)C1CCCCC1; Pip = O=C(O)[C@@H]1CCCCN1; Morpholide = C1CN(*)CCO1

As for `CNC(=O)[C@H](Cc1ccccc1)NC(=O)[C@@H]1Cc2ccccc2CN1C(=O)[C@H](CCCNC(=N)N)NC(=O)[C@@H](NC(=O)[C@@H](NC(C)=O)C(C)C)C1CCCCC1` [AcV(Chg)R(Tic)F-CONHMe] (Ac-V[Chg]R[Tic]F-NHMe), the IC50 in assay [1] lay within 10 to 100 nM.
On to `CC(=O)N[C@H](C(=O)N[C@H](C(=O)N[C@@H](CCCNC(=N)N)C(=O)N1Cc2ccccc2C[C@H]1C(=O)N[C@@H](Cc1ccccc1)C(=O)O)C1CCCCC1)C(C)C` [AcV(Chg)R(Tic)F-COOH] (Ac-V[Chg]R[Tic]F-OH), for which, in assay [1], the IC50 fell in the range of 10 to 100 nM.
For the compound `CC(=O)N[C@H](C(=O)N[C@H](C(=O)N[C@@H](CCCNC(=N)N)C(=O)N1CCCC[C@H]1C(=O)N[C@@H](Cc1ccccc1)C(N)=O)C1CCCCC1)C(C)C` [AcV(Chg)R(homo Pro)F] (Ac-V[Chg]R[Pip]F-NH2), the IC50 in assay [1] was 10 to 100 nM.
Same read-out and setting: then `CC(=O)N[C@H](C(=O)N[C@H](C(=O)N[C@@H](CCCNC(=N)N)C(=O)N1Cc2ccccc2C[C@H]1C(=O)N[C@@H](Cc1ccccc1)C(N)=O)C1CCCC1)C(C)C` [AcV(Cpg)R(Tic)F] (Ac-V[Gly(cPent)]R[Tic]F-NH2), with 1 to 10 nM; and `CC(=O)N[C@H](C(=O)N[C@H](C(=O)N[C@@H](CCCNC(=N)N)C(=O)N1Cc2ccccc2C[C@H]1C(=O)N[C@@H](Cc1ccccc1)C(=O)N1CCOCC1)C1Cc2ccccc2C1)C(C)C` [AcV(Indgly)R(Tic)F-CO(morpholine)] (Ac-V[Igl]R[Tic]F-Morpholide), with 10 to 100 nM; and `CNC(=O)[C@H](Cc1ccccc1)NC(=O)[C@@H]1Cc2ccccc2CN1C(=O)[C@H](CCCNC(=N)N)NC(=O)[C@@H](NC(=O)[C@@H](NC(C)=O)C(C)C)C1Cc2ccccc2C1` [AcV(Indgly)R(Tic)F-CONHMe] (Ac-V[Igl]R[Tic]F-NHMe), with 1 to 10 nM.
On the same count and under the same terms, as for `CC(=O)N[C@H](C(=O)N[C@H](C(=O)N[C@@H](CCCNC(=N)N)C(=O)N1Cc2ccccc2C[C@H]1C(=O)N[C@@H](Cc1ccccc1)C(N)=O)C1Cc2ccccc2C1)C(C)C` [AcV(Indgly)R(Tic)F] (Ac-V[Igl]R[Tic]F-NH2), the figure is 10 to 100 nM; as for (NH2-Beta Ala)V(Chg)(pyrimidinyl)(Tic)F, 10 to 100 nM.
Consider “MBP (84-102): immunodominant myelin basic protein (84-102) peptide (DPGSRPHLIRLFSRDAPGR; Myelin basic protein; UniProt P02686 84-102, looked up, fragment)”, for which the “binding affinity to DRB1*1501 molecules” value with DRB1*1501 was “bind with high affinity”. Moreover, in the assay with DRB5*0101, the “binding affinity to DRB5*0101 molecules” value is recorded as “bind with high affinity”.
As to a(Cha)AAAKTAAAAa-NH2, in the assay on DR molecules, the “binding to DR molecules” value is listed as “binds DR molecules”. Besides, the “suppression of T cell proliferation in response to protein antigens” value in the assay on T cell proliferation was “did not supress T cell proliferation”. For the same compound, in assay [2], the “activity in animal models of autoimmune disease” value is reported as “did not show activity”.
